Data as given in the NIST ThermoML archive (doi:10.1021/acs.jced.9b00704).

Conditions: Liquid, Light diffraction method

CCCCCC(=O)OC [methyl hexanoate]
Conditions | speed of sound [m/s]
297.83 K, 110 kPa | 1225.1
298.17 K, 10000 kPa | 1274.4
298.35 K, 7010 kPa | 1261.9
298.56 K, 5000 kPa | 1252.4
298.76 K, 1010 kPa | 1231.7
298.85 K, 3000 kPa | 1240.3
306.48 K, 110 kPa | 1182.9
308.58 K, 10010 kPa | 1227.8
308.59 K, 1010 kPa | 1186.9
308.9 K, 7000 kPa | 1221.1
309.13 K, 5010 kPa | 1210.5
309.19 K, 3010 kPa | 1197.6
317.52 K, 10010 kPa | 1181
317.6 K, 7010 kPa | 1175.8
317.92 K, 100 kPa | 1137
318.3 K, 1000 kPa | 1142.6
318.41 K, 5010 kPa | 1160.9
319.17 K, 3010 kPa | 1152.2
327.21 K, 110 kPa | 1090.2
327.38 K, 7010 kPa | 1130.2
327.4 K, 10010 kPa | 1143.2
327.58 K, 1010 kPa | 1097.9
327.64 K, 5010 kPa | 1120.6
327.9 K, 3000 kPa | 1107.9
336.91 K, 100 kPa | 1055.2
337.21 K, 5000 kPa | 1091.3
337.21 K, 7010 kPa | 1102.7
337.71 K, 10010 kPa | 1111.9
337.95 K, 1000 kPa | 1065.3
337.97 K, 3000 kPa | 1078
346.56 K, 1010 kPa | 1029.7
346.9 K, 100 kPa | 1021.1
346.92 K, 10020 kPa | 1081.3
347.43 K, 7000 kPa | 1067.3
347.71 K, 3010 kPa | 1040.3
347.75 K, 5010 kPa | 1054.8
356.24 K, 3010 kPa | 1011.9
356.68 K, 10010 kPa | 1048.7
357.28 K, 100 kPa | 970.4
357.33 K, 7010 kPa | 1033.1
357.35 K, 5000 kPa | 1022.1
357.85 K, 1010 kPa | 989.8
366.38 K, 3010 kPa | 970.6
366.68 K, 5000 kPa | 980.4
366.89 K, 10000 kPa | 1005.5
367.18 K, 7000 kPa | 989.6
367.24 K, 1010 kPa | 947.2
367.48 K, 100 kPa | 938.2
377.25 K, 3000 kPa | 927.9
377.7 K, 10000 kPa | 974.3
377.72 K, 5000 kPa | 939.5
377.88 K, 110 kPa | 903.5
377.91 K, 1010 kPa | 910.8
377.97 K, 7000 kPa | 961
386.63 K, 3000 kPa | 894.6
386.85 K, 10000 kPa | 945.8
387.01 K, 1010 kPa | 874.2
387.07 K, 7000 kPa | 922
387.29 K, 5000 kPa | 908.4
387.73 K, 100 kPa | 866.5
396.7 K, 3000 kPa | 862
397.25 K, 10010 kPa | 909.9
397.54 K, 7020 kPa | 891.4
397.64 K, 1010 kPa | 842.1
397.83 K, 5000 kPa | 875.5
398.6 K, 90 kPa | 827.8
406.65 K, 1010 kPa | 810.8
406.78 K, 3010 kPa | 828.8
406.79 K, 7020 kPa | 857.7
406.89 K, 10000 kPa | 885.7
406.99 K, 5010 kPa | 841.7
407.93 K, 100 kPa | 799
416.99 K, 7010 kPa | 835.1
417.08 K, 1010 kPa | 775.9
417.12 K, 3000 kPa | 796.9
417.21 K, 5010 kPa | 808.2
417.21 K, 10020 kPa | 864.4
417.52 K, 110 kPa | 764.3
427.06 K, 1000 kPa | 746
427.25 K, 3000 kPa | 770.6
427.25 K, 5000 kPa | 786.5
427.33 K, 7000 kPa | 805.5
427.38 K, 10010 kPa | 833.5
436.99 K, 1010 kPa | 714.9
437.07 K, 5000 kPa | 751.6
437.97 K, 6990 kPa | 771.5
438.1 K, 9980 kPa | 802.1
439.3 K, 3000 kPa | 727.5
446.68 K, 3010 kPa | 706.2
447 K, 4990 kPa | 723
447.21 K, 10010 kPa | 776
447.38 K, 7000 kPa | 744.5
447.88 K, 1000 kPa | 672.6
456.61 K, 3000 kPa | 673.8
456.81 K, 9990 kPa | 747
456.84 K, 5000 kPa | 695.3
457.1 K, 7010 kPa | 715.1
457.84 K, 990 kPa | 642.8
466.22 K, 3010 kPa | 642.9
466.28 K, 5000 kPa | 663.1
466.3 K, 7000 kPa | 689.7
466.3 K, 10010 kPa | 720.4
466.46 K, 1010 kPa | 613.5
478.01 K, 1010 kPa | 570.1
478.28 K, 7000 kPa | 646.3
478.28 K, 10000 kPa | 677.8
478.34 K, 5010 kPa | 623.4
478.43 K, 3010 kPa | 596.3
487.58 K, 1000 kPa | 535.4
487.67 K, 3010 kPa | 565.4
487.67 K, 5000 kPa | 595
487.69 K, 7000 kPa | 617
487.71 K, 10000 kPa | 653.5
497.17 K, 1010 kPa | 499.6
497.36 K, 5000 kPa | 568.5
497.38 K, 7000 kPa | 591.6
497.43 K, 3010 kPa | 534.1
497.44 K, 10000 kPa | 629.4
506.49 K, 3000 kPa | 503.9
506.88 K, 1000 kPa | 464.6
506.97 K, 7010 kPa | 563.3
507.02 K, 10020 kPa | 599.2
507.11 K, 5010 kPa | 535.1
516.99 K, 1010 kPa | 426.2
517.52 K, 7010 kPa | 531.6
517.56 K, 3000 kPa | 468.7
517.6 K, 5010 kPa | 504.9
517.63 K, 10010 kPa | 571
528.29 K, 5000 kPa | 472.6
528.46 K, 7000 kPa | 504
528.65 K, 10010 kPa | 547.3
529.52 K, 3000 kPa | 426
538.04 K, 3000 kPa | 396.8
538.26 K, 5010 kPa | 439.9
538.26 K, 7000 kPa | 472.1
538.35 K, 10000 kPa | 516.1
547.56 K, 3000 kPa | 362.7
547.96 K, 5000 kPa | 406.1
548.18 K, 9980 kPa | 498.8
548.26 K, 7000 kPa | 446
557.68 K, 3000 kPa | 321.9
557.89 K, 7010 kPa | 423
558.07 K, 10000 kPa | 472.6
558.34 K, 5000 kPa | 378.3
565.69 K, 10010 kPa | 446.4
566.56 K, 3010 kPa | 285.3
567.58 K, 5000 kPa | 346.5
567.72 K, 7010 kPa | 390.1
575.39 K, 5000 kPa | 317.9
576.35 K, 7000 kPa | 365.2
576.45 K, 3010 kPa | 241
577.04 K, 10010 kPa | 420.8
586.48 K, 3000 kPa | 197.5
586.99 K, 5010 kPa | 275
587.76 K, 7000 kPa | 334.6
588.07 K, 10030 kPa | 393.2
